Assay results reported in patent US5214067A, “Fungicidal compositions and method” (Merck & Co., Inc., priority 1990, dated 1993).
Converted amounts (≈) assume the structure as drawn.

Tests used:
Candida albicans MY 1055 = assay: Minimum inhibitory concentration (broth dilution) against Candida albicans MY 1055; assay type: cell-based; details: MY1055, C. albicans MY 1055, YNB/G, 37° C., 250 rpm, 17 hr
Protocol: 11-(3-hydroxymethyl-4-oxo-2oxetanyl)-7-methyl-2,4-undecadienoic acid (β-lactone compound), was solubilized in 100 percent dimethylsulfoxide (DMSO). Twofold dilutions were made with DMSO to obtain final drug concentrations in the broth dilution assay tubes ranging from […].
The Candida albicans, MY 1055 yeast culture, maintained in yeast nitrogen base/glucose (1/2 percent), YNB/G, was transferred to fresh medium and incubated 7 hours at 37° with shaking at 250 rpm. After incubation, each culture was diluted to A600 =0.0004 U/ml which was previously determined to be equal to 3000 cfu/ml (colony forming units per milliliter).
1 milliliter of YNB/G inoculated with yeast culture was added to sterile test tubes. The tubes were incubated at 250 rpm, 37° C. for 17 hr. The minimum inhibitory concentration (MIC) was recorded as the lowest concentration of drug […].
In a similar manner, the pyranyl ester was solubilized in dimethyl sulfoxide and dilution assay tubes from […] prepared. […] The MIC against C. C. albicans MY 1055 was determined to be 2 μg/ml.

C. albicans = assay: Synergistic and fungicidal effect: viable cell count (CFU/ml) of exponential phase C. albicans culture over time, drugs alone and in combination; assay type: cell-based, Candida albicans; details: β-lactone 3.1 μg/ml, pyranyl glycine ester 2 μg/ml, alone or together
Protocol: Synergistic and fungicidal effects were determined by treating exponential phase C. albicans culture with β-Lactone and pyranyl glycine ester at respective MIC level alone and in combination. Exponential phase cultures were prepared by diluting an overnight culture 1:50 or 1:1000 YNB/G. After incubating the diluted cells 7 or 17 hrs. at 37° C., the exponential phase cells were diluted in YNB/G to A600 =0.004u/ml to obtain 3000 cfu/ml.
10 microliters (μl) of β-lactone compound or pyranyl glycine ester compound prepared in DMSO was added to 1 ml of diluted exponential phase cells. The tubes were incubated at 37° C. at 250 rpm for about 24 hours. Periodically, aliquots were diluted in 0.9% saline and plated on Sabouraud dextrose agar plates to determine the number of cfu/ml.

[1] = time 2 hours, no drug 4.45 × 10^3
[2] = time 4.5 hours, no drug 1.75 × 10^4
[3] = time 7.5 hours, no drug 1.10 × 10^5
[4] = time 16.0 hours, no drug 5.35 × 10^6
[5] = time 20.5 hours, no drug 5.30 × 10^7
[6] = time 24.0 hours, no drug 7.65 × 10^7

Structure (SMILES)	MIC (Candida albicans MY 1055) [µg/mL]	Fungal Growth (CFU/ML) (C. albicans; time 0 hours (start), 37° C.)	Fungal Growth (CFU/ML) (C. albicans; [1])	Fungal Growth (CFU/ML) (C. albicans; [2])	Fungal Growth (CFU/ML) (C. albicans; [3])	Fungal Growth (CFU/ML) (C. albicans; [4])	Fungal Growth (CFU/ML) (C. albicans; [5])	Fungal Growth (CFU/ML) (C. albicans; [6])
CC(=CC(=O)O)C=C(C)CC(C)CCCCC1OC(=O)C1CO (stereo not drawn) [β-Lactone Compound]	3.1 (≈ 9.56 µM)	2.70 × 10^3 CFU/ML	5.95 × 10^3 CFU/ML	4.10 × 10^3 CFU/ML	4.55 × 10^3 CFU/ML	1.70 × 10^3 CFU/ML	1.50 × 10^3 CFU/ML	1.50 × 10^3 CFU/ML
CCCC=CC=CC=C(C)C1OCC(C)C(OC)C1OC(=O)CN (stereo not shown) [Pyranyl Glycine Ester Compound, (2,3,4,5)-tetrahydro-4-methoxy-5-methyl-2-(1-methyl-1,3,5-nonatrienyl)-2-pyran-3-yl-glycine]	2 (≈ 5.93 µM)	2.70 × 10^3 CFU/ML	6.05 × 10^3 CFU/ML	9.60 × 10^3 CFU/ML	1.40 × 10^4 CFU/ML	1.00 × 10^5 CFU/ML	1.02 × 10^6 CFU/ML	1.37 × 10^6 CFU/ML
